Test results published in PMC9317327, “Functional Characterization, Antimicrobial Effects, and Potential Antibacterial Mechanisms of NpHM4, a Derived Peptide of Nautilus pompilius Hemocyanin” (Marine Drugs, 2022).
≈ marks a conversion by molar mass, not a printed value. Where a SMILES comes first, the peptide text is derived from it.

Key:
[1] = tested on: Vibrio parahaemolyticus 2013V-1174; format: cell-based; details: 2 h
[2] = tested on: Vibrio alginolyticus (A056); format: cell-based; details: 2 h
[3] = tested on: Staphylococcus aureus ATCC 25923; format: cell-based; details: ATCC 25923, 2 h, pH 7.2
Method: (§1) The antimicrobial activity of the peptides was determined against Gram-negative bacteria, including V. alginolyticus (A056), E. coli (DH5α), and V. parahaemolyticus (2013V-1174), which were obtained from the South China Sea Institute of Oceanology, Chinese Academy of Sciences. The activity was also tested against the Gram-positive bacteria S. aureus ATCC 25923 and B. subtilis ATCC 6051. To assess the antimicrobial activities of the peptides, bacterial cells were cultured to the logarithmic growth phase and then diluted to 10^6–1.5 × 10^7 CFU/mL with PBS (0.01 M, pH 7.2). Equal volumes of serially diluted peptides, with concentrations ranging from 30 to 450 μM in PBS, and bacteria suspension were mixed and incubated at room temperature for 2 h, respectively. Then, 6 μL of each serially diluted mixture was plated on sterile 12-well agar plates, followed by incubation for 11 to 12 h, and the colonies were assessed to determine the MICs and MBCs. The MICs were expressed (in µM) as an [a]–[b] concentration interval, where [a] is the highest peptide concentration at which bacteria were growing and [b] is the lowest concentration that caused 100% growth inhibition. Cultures without peptides were employed as controls. All the tests were performed in triplicate and repeated three times.

[4] = tested on: Vibrio alginolyticus (A056); format: cell-based; details: 2 h, pH 7.2
Method: as §1

[5] = tested on: Vibrio parahaemolyticus 2013V-1174; format: cell-based; details: 2 h, pH 7.2
Method: as §1

Escherichia coli (DH5α) = format: cell-based; details: DH5α, 2 h, pH 7.2
Method: as §1

[6] = tested on: Bacillus subtilis ATCC 6051; format: cell-based; details: ATCC 6051, 2 h, pH 7.2
Method: as §1

Staphylococcus aureus = details: cited from earlier work
E. coli = details: cited from earlier work
Method: In order to explore the antibacterial activity of the six predicted AMPs, the minimal inhibitory concentrations (MICs) and the minimal bactericidal concentrations (MBCs) of chemically synthesized NpHN1–NpHN6 peptides were measured against Gram-negative bacteria (Vibrio alginolyticus and Escherichia coli). […] The GR ...

Bacillus megaterium = details: cited from earlier work

Compound: CC[C@H](C)[C@H](NC(=O)CNC(=O)[C@H](Cc1c[nH]cn1)NC(=O)[C@H](CCCNC(=N)N)NC(=O)[C@H](CC(C)C)NC(=O)[C@H](Cc1ccccc1)NC(=O)CNC(=O)[C@H](C)NC(=O)[C@H](Cc1ccccc1)NC(=O)[C@@H](NC(=O)[C@@H](N)CCCNC(=N)N)C(C)C)C(=O)N[C@@H](CCCCN)C(=O)N[C@@H](CCCNC(=N)N)C(=O)N[C@@H](CO)C(=O)N[C@@H](CCCNC(=N)N)C(=O)O [NpHM4] (H-RVFAGFLRHGIKRSR-OH)
- IC50 [1]: 32.1 µM
- IC50 [2]: 12.2 µM
- MBC [3]: >50 µM
- MIC [3]: >50 µM
- MBC [4]: 30 µM (≈ 54 µg/mL)
- MIC [4]: 5 to 25 µM
- MBC [5]: 50 µM (≈ 90 µg/mL)
- MIC [5]: 15 to 45 µM
- MBC (Escherichia coli (DH5α)): >150 µM
- MIC (Escherichia coli (DH5α)): 50 to 150 µM
- MBC [6]: >50 µM
- MIC [6]: >50 µM

Compound: GSTSFHLIYNKWFAVKRRRKR [GR21]
- MBC (Staphylococcus aureus): below 25 μM
- MBC (E. coli): below 25 μM
- MBC (Bacillus megaterium): below 25 μM
